In data set [1] the test system is V. cholerae WN1102. Put plainly: Bioluminescence response of V. cholerae WN1102 (in vitro bioactivity assay). The class given is cell-based. Conditions: suggested by bioactivity of the flow through. The source says: FIG. 10(a) illustrates bioluminescence response of V. cholerae WN1102 supplemented with varying amounts of CAI-1-loaded Zein/CAS/VitE-Ac composite nanoparticles in PBS according to some embodiments described herein.
The bioactivity of blank Zein/CAS/VitEA particles was not detectable (FIG. 10b). […] The flow-through after centrifugal filtration can be regarded as a correlate for encapsulation efficiency of CAI-1. Bioactivity of the flow through was observed only at very high concentrations, approximately 1,000-10,000-fold higher than CAI-1 NPs.

In data set [2] the test system is V. cholera cultures. Put plainly: Growth of V. cholera cultures at 37° C. The data set is classed as cell-based. Conditions: during the time tested. The procedure: FIG. 10(b) illustrates growth of V. cholera cultures at 37° C. in response to addition of CAI-1-loaded Zein/CAS/VitE-Ac nanoparticles according to some embodiments described herein.
Changes in size and PDI could only be observed for the three-fold protein per amount of drug formulation (FIG. 9a). […] All parts of the formulation were necessary for the formation of nanoparticles with defined size. […] FNP of CAI-1 alone yielded a polydisperse emulsion, which then agglomerated and settled out over time.

The conditions of data set [3]: cited from earlier work; for Log D: pH 7.4.
Data set [4] in a line: Nanoparticle solution stability (milliQ H2O, PBS pH7.4, LB50, 2% bile salts, pH2.0) by DLS. The data set is classed as physicochemical. Conditions: 10% wt. Nile Red loading.
Procedure: Using a Zetasizer® Nano-ZS (Malvern instruments, Malvern, UK), dynamic light scattering (DLS) size measurements were performed on samples directly after FNP. Samples were diluted with ultra-pure water to avoid multiple scattering and analyzed at 25° C. using a detection angle of 173°. The reported size is the intensity-weighted average diameter as reported by the Malvern deconvolution software in Normal Mode analysis.
Initially, nanoparticle formulations were screened for stability at physiologic conditions (PBS) and conditions relevant to the in vitro model of V. cholera.
Various zein-to-casein ratios were produced to further investigate formulation stability in physiological environments relevant to oral delivery. Zein to casein ratios 4:1, 2:1, and 1:1 FIG. 17 in PBS, pH2.0, LB50 and 2% bile salts were investigated.
Data set [5] can be described thus: Nile Red encapsulation efficiency by UV-Vis of flow through after centrifugal filtration. The data set is classed as physicochemical. Conditions: in Zn/CAS-VitE-Ac NPs, all stable formulations (0.2%-5 wt.%). An excerpt:
The utility of an encapsulation method depends on its encapsulation capacity and efficiency for various compounds. […] Nile Red was encapsulated at 0.2%-5 wt. %. At 0.1% wt. […] Encapsulation efficiency of Nile Red in Zn/CAS-VitE-Ac NPs was >98% for all stable formulations as determined by UV-Vis measurement of the flow through after centrifugal filtration (FIG. 7). With increasing Nile Red concentration in the core, the mean nanoparticle diameter increases (FIG. 6b). The florescence intensity is expected to increase with higher dye loading per particle. This can be seen in FIGS. 6(c) and 6(d) for two different wavelengths (500 nm excitation, 690 nm emission) and core loadings of 0.2-1% wt.

As for `CCCCCCCCCC(=O)[C@@H](O)CC` [CAI-1], the “Encapsulation efficiency of CAI-1 during FNP” value in data set [1] is listed as above 98%. For the same molecule, the “Effect on the growth of cells” value in data set [2] is “no apparent effect”. For the same molecule, the “Log D” value in data set [3] is 4.30.
On to `NC(=O)CC[C@@H]1NC(=O)[C@H](Cc2ccccc2)NC(=O)[C@H](Cc2ccc(O)cc2)NC(=O)CCSSC[C@@H](C(=O)N2CCC[C@H]2C(=O)N[C@H](CCCN=C(N)N)C(=O)NCC(N)=O)NC(=O)[C@H](CC(N)=O)NC1=O` [Desmopressin], for which the “Log D” value in data set [3] is -7.34.
Consider `Nc1ccc(O)c(C(=O)O)c1` [Mesalazine], for which, in data set [3], the “log P” value is 0.46 and the log distribution coefficient (Log D) is -1.98.
`CN(C)c1ccc(/N=N/c2ccccc2C(=O)O)cc1` [Methyl Red]: the “Log D” value in data set [3] is 1.46.
In the case of `CCN(CC)c1ccc2nc3c4ccccc4c(=O)cc-3oc2c1` [Nile Red], the “NP behaviour after FNP at high dye loading” value in data set [4] was “immediate aggregation of NPs”. Also, the “Encapsulation efficiency of Nile Red” value in data set [5] was above 98%. Besides, the “Log D” value in data set [3] is 4.46.
With `c1cc2ccc3cccc4ccc(c1)c2c34` [Pyrene], in data set [3], the “log P” value is on record as 5.17 and the “Log D” value was 4.92.

The record behind these values is US12083230B2, “Nano-encapsulation using GRAS materials and applications thereof” (priority 2015, dated 2024).
